Reference: the NIST ThermoML archive (doi:10.1021/je060107n)

Experiment: mn = molality of the nth substance listed, in mol/kg
Conditions: 101 kPa, Liquid; for mass density: Pycnometric method; for viscosity: Capillary tube (Ostwald / Ubbelohde) method; for speed of sound: Linear variable-path acoustic interferometer

CC(=O)[O-].CC(=O)[O-].[Mg+2] [magnesium acetate] + O
Conditions | mass density [kg/m3] | speed of sound [m/s] | viscosity [mPa·s]
305.5 K, m1 = 1.866 | 1115.1 | – | –
305.65 K, m1 = 0.646 | 1041.8 | – | –
305.85 K, m1 = 1.354 | 1086.1 | – | –
305.85 K, m1 = 5.732 | 1263.4 | – | –
305.95 K, m1 = 0.0831 | 1001 | – | –
305.95 K, m1 = 0.8751 | 1056.2 | – | –
306.3 K, m1 = 0.4247 | 1026.1 | – | –
306.4 K, m1 = 3.043 | 1171.3 | – | –
306.4 K, m1 = 3.437 | 1191.7 | – | –
306.55 K, m1 = 1.608 | 1101.3 | – | –
306.65 K, m1 = 5.165 | 1247 | – | –
306.75 K, m1 = 3.819 | 1203.4 | – | –
306.9 K, m1 = 0.1671 | 1007 | – | –
307.25 K, m1 = 2.134 | 1128.6 | – | –
307.5 K, m1 = 2.622 | 1152.1 | – | –
307.6 K, m1 = 4.547 | 1227.3 | – | –
307.65 K, m1 = 0.0414 | 997.17 | – | –
307.75 K, m1 = 1.327 | 1084 | – | –
308.05 K, m1 = 1.866 | 1114 | – | –
308.1 K, m1 = 1.106 | 1071.4 | – | –
308.15 K, m1 = 0.0414 | – | 1523.3 | 0.7529
308.15 K, m1 = 0.0831 | – | 1530.3 | 0.7775
308.15 K, m1 = 0.1671 | – | 1541.4 | 0.8306
308.15 K, m1 = 0.4247 | – | 1575.1 | 1.021
308.15 K, m1 = 0.646 | – | 1601.9 | 1.231
308.15 K, m1 = 0.8751 | – | 1631.2 | 1.45
308.15 K, m1 = 1.106 | – | 1655.9 | 1.774
308.15 K, m1 = 1.354 | – | 1677.9 | 2.139
308.15 K, m1 = 1.608 | – | 1705 | 2.139
308.15 K, m1 = 1.866 | – | 1728.9 | 3.181
308.15 K, m1 = 2.134 | – | 1754.2 | 3.943
308.15 K, m1 = 2.411 | – | 1782.5 | 5.121
308.15 K, m1 = 2.622 | – | 1791.3 | 5.819
308.15 K, m1 = 3.043 | – | 1819.5 | 8.11
308.15 K, m1 = 3.437 | – | 1847.8 | 12.3
308.15 K, m1 = 3.819 | – | 1862.6 | –
308.15 K, m1 = 4.001 | – | – | 19.17
308.15 K, m1 = 4.547 | – | 1888.8 | –
308.15 K, m1 = 4.563 | – | – | 31.43
308.15 K, m1 = 4.929 | – | – | 39.25
308.15 K, m1 = 5.165 | – | 1908 | –
308.15 K, m1 = 5.41 | – | – | 72.56
308.15 K, m1 = 5.732 | – | 1914.4 | 96.97
308.15 K, m1 = 6.187 | – | – | 175.6
308.45 K, m1 = 6.187 | 1274.5 | – | –
308.65 K, m1 = 0.646 | 1040.7 | – | –
308.65 K, m1 = 1.354 | 1085 | – | –
308.7 K, m1 = 3.437 | 1190.5 | – | –
308.75 K, m1 = 0.8751 | 1055.2 | – | –
308.75 K, m1 = 3.043 | 1170.1 | – | –
308.85 K, m1 = 5.165 | 1245.6 | – | –
308.9 K, m1 = 0.0831 | 1000 | – | –
308.95 K, m1 = 3.819 | 1202.2 | – | –
309.1 K, m1 = 2.411 | 1142.9 | – | –
309.25 K, m1 = 0.4247 | 1025.2 | – | –
309.6 K, m1 = 1.608 | 1100.1 | – | –
309.7 K, m1 = 0.1671 | 1006 | – | –
309.7 K, m1 = 4.547 | 1225.9 | – | –
309.7 K, m1 = 5.732 | 1260.8 | – | –
309.8 K, m1 = 2.134 | 1127.4 | – | –
309.95 K, m1 = 2.622 | 1151 | – | –
310.45 K, m1 = 6.187 | 1273.1 | – | –
310.6 K, m1 = 1.327 | 1082.8 | – | –
310.7 K, m1 = 1.106 | 1070.3 | – | –
310.8 K, m1 = 6.545 | 1280.7 | – | –
310.85 K, m1 = 0.0414 | 996.1 | – | –
310.85 K, m1 = 3.437 | 1189.2 | – | –
310.95 K, m1 = 5.165 | 1244.3 | – | –
311.2 K, m1 = 3.819 | 1201 | – | –
311.25 K, m1 = 3.043 | 1168.8 | – | –
311.35 K, m1 = 0.646 | 1039.6 | – | –
311.4 K, m1 = 1.354 | 1083.9 | – | –
311.65 K, m1 = 0.8751 | 1054 | – | –
311.85 K, m1 = 0.0831 | 998.98 | – | –
311.9 K, m1 = 4.547 | 1224.6 | – | –
312.1 K, m1 = 0.4247 | 1024 | – | –
312.15 K, m1 = 1.608 | 1099 | – | –
312.3 K, m1 = 6.187 | 1271.8 | – | –
312.45 K, m1 = 2.134 | 1126.3 | – | –
312.55 K, m1 = 0.1671 | 1004.8 | – | –
312.55 K, m1 = 2.622 | 1149.7 | – | –
312.7 K, m1 = 6.545 | 1279.4 | – | –
313.15 K, m1 = 0.0414 | – | 1532.2 | 0.6835
313.15 K, m1 = 0.0831 | – | 1539 | 0.7037
313.15 K, m1 = 0.1671 | – | 1547.7 | 0.7523
313.15 K, m1 = 0.4247 | – | 1582.3 | 0.9195
313.15 K, m1 = 0.646 | – | 1607.4 | 1.105
313.15 K, m1 = 0.8751 | – | 1635.6 | 1.294
313.15 K, m1 = 1.106 | – | 1659.1 | 1.573
313.15 K, m1 = 1.354 | – | 1679.3 | 1.887
313.15 K, m1 = 1.608 | – | 1704.6 | 1.887
313.15 K, m1 = 1.866 | – | 1728.4 | 2.771
313.15 K, m1 = 2.134 | – | 1752.5 | 3.404
313.15 K, m1 = 2.411 | – | 1778.6 | 4.373
313.15 K, m1 = 2.622 | – | 1787.1 | 4.948
313.15 K, m1 = 3.043 | – | 1815 | 6.797
313.15 K, m1 = 3.437 | 1188 | 1840.3 | 10.13
313.15 K, m1 = 3.819 | – | 1854.1 | –
313.15 K, m1 = 4.001 | – | – | 15.43
313.15 K, m1 = 4.547 | – | 1878.9 | –
313.15 K, m1 = 4.563 | – | – | 24.53
313.15 K, m1 = 4.929 | – | – | 30.41
313.15 K, m1 = 5.165 | – | 1896 | –
313.15 K, m1 = 5.41 | – | – | 54.06
313.15 K, m1 = 5.732 | – | – | 71.46
313.15 K, m1 = 6.187 | – | – | 120
313.35 K, m1 = 0.0414 | 995.14 | – | –
313.45 K, m1 = 1.327 | 1081.7 | – | –
313.45 K, m1 = 1.866 | 1111.6 | – | –
313.45 K, m1 = 3.819 | 1199.8 | – | –
313.5 K, m1 = 1.106 | 1069.1 | – | –
313.5 K, m1 = 3.043 | 1167.6 | – | –
313.55 K, m1 = 5.732 | 1258.3 | – | –
314 K, m1 = 4.547 | 1223.4 | – | –
314.05 K, m1 = 1.354 | 1082.8 | – | –
314.1 K, m1 = 2.411 | 1140.6 | – | –
314.25 K, m1 = 0.646 | 1038.6 | – | –
314.25 K, m1 = 6.187 | 1270.4 | – | –
314.3 K, m1 = 0.8751 | 1052.9 | – | –
314.35 K, m1 = 0.0831 | 997.91 | – | –
314.5 K, m1 = 6.545 | 1278.1 | – | –
314.65 K, m1 = 0.4247 | 1022.9 | – | –
